Values quoted from earlier work as cited in patent US20010043957A1, “Lypolytic composition” (priority 2000, published 2001).

Key:
[1] = group of animals
[2] = per day, most healthy people, caffeine and related methylxanthines

Row | Structure (SMILES) | loss in body weight [1] | amount safely consumed without adverse reactions [2] | loss in body fat [1] [%]
1 | Cn1c(=O)c2c(ncn2C)n(C)c1=O [caffeine] | not significant loss in body weight | up to 200 mg | 
2 | CN[C@@H](C)[C@H](O)c1ccccc1 [ephedrine] | 14% |  | 42
